Results: EP0312245A2, “Polycyclic compounds and pharmaceutical compositions thereof” (NORISTAN HOLDINGS LIMITED, priority 1987, dated 1989)
Several values for one entry are separate records, joined by “and”; a condition that tells them apart may be missing. Equal entries are not always repeated.

Columns and labels:
[1] = tested on: spontaneously hypertensive rats (SHR ); experiment: Antihypertensive test: mean arterial pressure in spontaneously hypertensive rats; format: in vivo, rat; set-up: mean arterial BP (individual rats): unit not given here; settings: SHR, 1mg/kg intravenous; for mean arterial BP (individual rats): rats 1-6, 1 mg/kg; for mean arterial BP, Av. / Average % change in mean arterial BP: standard error of the mean in brackets; for Average % change in mean arterial BP: versus pre-dose control
Protocol: (§1) The effect of Compound 3 on the mean arterial pressure was determined on spontaneously hypertensive rats (SHR ) by means of direct pressure transducing. Groups of 6 male rats of mass 210-300g were used. The average of ten pressure determinations was used. Normotensive (BD-9) rats were used as animal controls, while normal saline solution (containing some traces of polyethylene glycol and ethanol to aid in the solution of the test compounds) was used as solvent and as solvent control.
(§2) After verifying the mass of the animal, it was placed under general anaesthesia by administering 60mgikg pentobarbitone (Sagatal@) intraperitonially. The tracheal tube and carotid artery were both exposed by dissection. An intranule was introduced into the trachea as aid ventilation. The carolid artery was canalated and coupled to a pressure sensor. The sysolic, diastolic and mean arterial pressure were monitored via a Spacelab 514 patient monitor and registered on a Vitatek 551 plotter. During the experiment the exposed tissue of the rat was covered with guaze and kept damp with normal saline.
(§3) The drugs and solvent controls were administered intravenously into the dorsal penile vein after stabilization of the blood pressure (BP) had occurred. After drug administration, the BP was recorded every 5 minutes for a period of 30 min.

[2] = tested on: BD-9 rats (normatensive); experiment: Antihypertensive test: mean arterial pressure in normotensive BD-9 rats; format: in vivo, rat; set-up: mean arterial BP (individual rats): unit not given here; settings: 1mg/kg intravenous; for mean arterial BP (individual rats): rats 1-6, 1 mg/kg; for mean arterial BP, Av. / Average % change in mean arterial BP: standard error of the mean in brackets; for Average % change in mean arterial BP: versus pre-dose control
Protocol: as §1, §2, §3

[3] = tested on: isolated rabbit ear preparation; experiment: Rabbit ear perfusion test (adrenaline-induced tone, perfusion pressure); settings: Oryctolagus cuniculus, Table 6, read-out: Corrected mean % change in perfusion pressurre
Protocol: Female New Zealand White rabbits (approximately 4kg) were anaesthetised with Sagatal ® (0.5ml/kg).
The central ear artery was cannulated using a 20 G catheter and the ear cut off at its base. Heparinised (5ml, 200 IU;ml) Krebs bicarbonate solution was perfused through the ear to expel the blood. The ear was placed in a warming jacket at 37°C and attached via the arterial catheter to the perfusion pump. Perfusion of the ear with aerated (95% 025% C02)Krebs bicarbonate solution at 37° C was commenced at a rate of 6.5ml/min using a Watson Marlow peristaltic pump. The perfusion pressure was monitored continuously using a pressure transducer (Type 4-327-1221, Consoliated Electrodynamics) coupled to a Devices Recorder.
Following an equilibration period of 15 minutes, increased tone was induced in the preparation by addition of adrenaline (1µg/ml) to the perfusion fluid.
After a stable tone was observed, various concentrations of test compounds were injected into the perfusion fluid and examined for their effect on the perfusion pressure. The effect of vehicle (0.2ml, 50% Krebs 50% ethanol) was also tested on the ear preparation.

Structure (SMILES): COC(=O)C1=C(C)NC(C)=C(C(=O)OC)C1c1ccccc1[N+](=O)[O-] [Nifedipine]
- mean arterial BP (individual rats) ([1]; 5 min): 105 and 67 and 88 and 85 and 80 and 74
- mean arterial BP, Av. ([1]; 5 min): 83(5)
- Average % change in mean arterial BP ([1]; 5 min): 44(5.4) %
- mean arterial BP (individual rats) ([1]; 10 min): 96 and 64 and 104 and 88 and 81 and 74
- mean arterial BP, Av. ([1]; 10 min): 85(6)
- Average % change in mean arterial BP ([1]; 10 min): 43(6.0) %
- mean arterial BP (individual rats) ([1]; 15 min): 95 and 68 and 107 and 93 and 84 and 77
- mean arterial BP, Av. ([1]; 15 min): 87(6)
- Average % change in mean arterial BP ([1]; 15 min): 41(5.8) %
- mean arterial BP (individual rats) ([1]; 20 min): 93 and 69 and 92 and 100 and 83 and 80
- mean arterial BP, Av. ([1]; 20 min): 86(5)
- Average % change in mean arterial BP ([1]; 20 min): 42(4.2) %
- mean arterial BP (individual rats) ([1]; 25 min): 95 and 71 and 93 and 106 and 79 and 84
- mean arterial BP, Av. ([1]; 25 min): 88(5)
- Average % change in mean arterial BP ([1]; 25 min): 41(4.4) %
- mean arterial BP (individual rats) ([1]; 30 min): 95 and 73 and 93 and 110 and 81 and 85
- mean arterial BP, Av. ([1]; 30 min): 90(5)
- Average % change in mean arterial BP ([1]; 30 min): 40(4.3) %
- mean arterial BP (individual rats) ([2]; 5 min): 67 and 59 (2×) and 80 and 74 and 60
- mean arterial BP, Av. ([2]; 5 min): 67(4)
- Average % change in mean arterial BP ([2]; 5 min): 38(5.5) %
- mean arterial BP (individual rats) ([2]; 10 min): 65 and 67 (2×) and 74 and 69 and 66
- mean arterial BP, Av. ([2]; 10 min): 68(1)
- Average % change in mean arterial BP ([2]; 10 min): 37(4.4) %
- mean arterial BP (individual rats) ([2]; 15 min): 68 and 66 (2×) and 65 and 74 and 63
- mean arterial BP, Av. ([2]; 15 min): 67(2)
- Average % change in mean arterial BP ([2]; 15 min): 38(3.8) %
- mean arterial BP (individual rats) ([2]; 20 min): 67 and 60 and 62 and 77 and 65 and 64
- mean arterial BP, Av. ([2]; 20 min): 66(2)
- Average % change in mean arterial BP ([2]; 20 min): 39(3.1) %
- mean arterial BP (individual rats) ([2]; 25 min): 63 (2×) and 55 and 62 and 80 and 67
- mean arterial BP, Av. ([2]; 25 min): 65(3)
- Average % change in mean arterial BP ([2]; 25 min): 40(2.8) %
- mean arterial BP (individual rats) ([2]; 30 min): 61 and 57 and 63 and 79 and 60 and 62
- mean arterial BP, Av. ([2]; 30 min): 64(3)
- Average % change in mean arterial BP ([2]; 30 min): 41(3.4) %
- inhibition at 0.01 mg ([3]; dose 10 μg): 4%
- inhibition at 0.0316 mg ([3]; dose 31.6 μg): 0.5%
- inhibition at 0.1 mg ([3]; dose 100 μg): 9.5%
- inhibition at 0.316 mg ([3]; dose 316 μg): -26%
- inhibition at 1 mg ([3]; dose 1000 μg): 39.5%
